This test has as its target T1, human EP2 (PTGER2) (Homo sapiens, UniProt P43116).
T1 construct: Cayman Chemical (Human EP2 Reporter Assay Kit)
The test is described as follows: EP2 antagonist assay (HEK-293 CNG membrane potential cAMP assay / 293T SEAP reporter assay, PGE2-stimulated). The format is cell-based. The settings on record: EP2 antagonist activity; concentration for 50% inhibition of signal compared to DMSO. The essentials:
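Two formats. In a CRE-SEAP reporter assay, reverse-transfected 293T cells received compound with PGE2 (13 nM final) for 6-8 h, then luminescence was read. In the ACTOne CNG format, HEK-293 cells were preincubated with compound for 15 min at RT, stimulated with 5 nM PGE2 for 30 min, and read by membrane-potential dye fluorescence. IC50 was taken versus DMSO.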
(Cyclic AMP is a second messenger, typically raised through Gs and lowered through Gi signalling.)
T1 sequence (P43116 whole entry): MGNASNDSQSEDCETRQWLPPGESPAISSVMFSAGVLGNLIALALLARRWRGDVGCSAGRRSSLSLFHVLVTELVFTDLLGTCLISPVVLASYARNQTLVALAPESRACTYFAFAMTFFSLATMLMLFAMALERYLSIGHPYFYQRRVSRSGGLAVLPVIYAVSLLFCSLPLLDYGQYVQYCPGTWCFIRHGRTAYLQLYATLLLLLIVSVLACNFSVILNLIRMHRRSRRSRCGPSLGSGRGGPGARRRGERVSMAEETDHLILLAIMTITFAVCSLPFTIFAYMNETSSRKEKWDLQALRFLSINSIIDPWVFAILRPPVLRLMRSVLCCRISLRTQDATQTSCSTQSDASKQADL
As to `O=C(O)c1ccc(CNC(=O)c2cc(-c3cccnc3)cc3ccn(Cc4cccc(Cl)c4)c23)cc1` [Example 104, 4-((1-(3-chlorobenzyl)-5-(pyridin-3-yl)-1H-indole-7-carboxamido)methyl)benzoic acid], the 50% inhibitory concentration (IC50) (as a rule, the point on the concentration scale where inhibition reaches its midpoint) is below 100 nM.
The figure for `O=C(O)c1ccc(CNC(=O)c2cc(-c3ccccc3)cc3ccn(Cc4cccc(Cl)c4)c23)cc1` [Example 105, 4-((1-(3-chlorobenzyl)-5-phenyl-1H-indole-7-carboxamido)methyl)benzoic acid] is below 100 nM; for `C[C@H](NC(=O)c1cc(-c2cccc(C#N)c2)cc2ccn(Cc3cccc(Cl)c3)c12)c1ccc(C(=O)O)cc1` [Example 108, (S)-4-(1-(1-(3-chlorobenzyl)-5-(3-cyanophenyl)-1H-indole-7-carboxamido)ethyl)benzoic acid] it is below 100 nM.
With `C[C@H](NC(=O)c1cc(-c2cccnc2)cc2ccn(Cc3cccc(Cl)c3)c12)c1ccc(C(=O)O)cc1` [Example 109, (S)-4-(1-(1-(3-chlorobenzyl)-5-(pyridin-3-yl)-1H-indole-7-carboxamido)ethyl)benzoic acid], the IC50 was below 100 nM.
`C[C@H](NC(=O)c1cc(-c2ccccc2)cc2ccn(Cc3cccc(Cl)c3)c12)c1ccc(C(=O)O)cc1` [Example 110, (S)-4-(1-(1-(3-chlorobenzyl)-5-phenyl-1H-indole-7-carboxamido)ethyl)benzoic acid] had an IC50 below 100 nM.
As to `C[C@H](NC(=O)c1cc(-c2cc(F)cc(F)c2)cc2ccn(Cc3cccc(Cl)c3)c12)c1ccc(C(=O)O)cc1` [Example 111, (S)-4-(1-(1-(3-chlorobenzyl)-5-(3,5-difluorophenyl)-1H-indole-7-carboxamido)ethyl)benzoic acid], the IC50 was below 100 nM.
The figure for `CNC(=O)c1cccc(-c2cc(C(=O)NCc3ccc(C(=O)O)cc3)c3c(ccn3Cc3ccc(C(F)(F)F)cc3)c2)c1` [Example 116, 4-((5-(3-(methylcarbamoyl)phenyl)-1-(4-(trifluoromethyl)benzyl)-1H-indole-7-carboxamido)methyl)benzoic acid] is 100 to 1000 nM; for `N#Cc1cccc(-c2cc(C(=O)NC34CC(CC(=O)O)(C3)C4)c3c(Sc4ccc(C(F)(F)F)cc4)c[nH]c3c2)c1` [Example 118, 2-(3-(6-(3-cyanophenyl)-3-((4-(trifluoromethyl)phenyl)thio)-1H-indole-4-carboxamido)bicyclo[1.1.1]pentan-1-yl)acetic acid] it is 100 to 1000 nM.
The figure for `N#Cc1cccc(-c2cc(C(=O)NCC34CC(C(=O)O)(C3)C4)c3c(Sc4ccc(C(F)(F)F)cc4)c[nH]c3c2)c1` [Example 119, 3-((6-(3-cyanophenyl)-3-((4-(trifluoromethyl)phenyl)thio)-1H-indole-4-carboxamido)methyl)bicyclo[1.1.1]pentane-1-carboxylic acid] is 100 to 1000 nM; for `Cn1cc(Sc2ccc(C(F)(F)F)cc2)c2c(C(=O)NCc3ccc(C(=O)O)cc3)cc(-c3cccc(C#N)c3)cc21` [Example 120, 4-((6-(3-cyanophenyl)-1-methyl-3-((4-(trifluoromethyl)phenyl)thio)-1H-indole-4-carboxamido)methyl)benzoic acid] it is 100 to 1000 nM; for `Cn1cc(Sc2ccc(C(F)(F)F)cc2)c2c(C(=O)NCc3ccc(C(=O)O)cc3)cc(-c3cccc(C(N)=O)c3)cc21` [Example 121, 4-((6-(3-carbamoylphenyl)-1-methyl-3-((4-(trifluoromethyl)phenyl)thio)-1H-indole-4-carboxamido)methyl)benzoic acid] it is 100 to 1000 nM.
The value for `O=C(O)c1ccc(CNC(=O)c2cc(-c3ccccc3)cc3ccn(Cc4cccc(C(F)(F)F)c4)c23)cc1` [Example 122, 4-((5-phenyl-1-(3-(trifluoromethyl)benzyl)-1H-indole-7-carboxamido)methyl)benzoic acid] was below 100 nM; that for `O=C(O)c1ccc(CNC(=O)c2cc(-c3cccnc3)cc3ccn(Cc4cccc(C(F)(F)F)c4)c23)cc1` [Example 123, 4-((5-(pyridin-3-yl)-1-(3-(trifluoromethyl)benzyl)-1H-indole-7-carboxamido)methyl)benzoic acid] was 100 to 1000 nM.
Regarding `O=C(O)c1ccc(CNC(=O)c2cc(-c3cc(F)cc(F)c3)cc3ccn(Cc4cccc(C(F)(F)F)c4)c23)cc1` [Example 125, 4-((5-(3,5-difluorophenyl)-1-(3-(trifluoromethyl)benzyl)-1H-indole-7-carboxamido)methyl)benzoic acid], the IC50 is below 100 nM.
The figure for `N#Cc1cccc(-c2cc(C(=O)NCc3ccc(C(=O)O)cc3)c3c(ccn3Cc3cccc(C(F)(F)F)c3)c2)c1` [Example 126, 4-((5-(3-cyanophenyl)-1-(3-(trifluoromethyl)benzyl)-1H-indole-7-carboxamido)methyl)benzoic acid] is below 100 nM; for `C[C@H](NC(=O)c1cc(-c2cccc(C#N)c2)cc2ccn(Cc3cccc(C(F)(F)F)c3)c12)c1ccc(C(=O)O)cc1` [Example 127, (S)-4-(1-(5-(3-cyanophenyl)-1-(3-(trifluoromethyl)benzyl)-1H-indole-7-carboxamido)ethyl)benzoic acid] it is below 100 nM.
In the case of `C[C@H](NC(=O)c1cc(-c2cccnc2)cc2ccn(Cc3cccc(C(F)(F)F)c3)c12)c1ccc(C(=O)O)cc1` [Example 128, (S)-4-(1-(5-(pyridin-3-yl)-1-(3-(trifluoromethyl)benzyl)-1H-indole-7-carboxamido)ethyl)benzoic acid], the IC50 is below 100 nM.
The value for `C[C@H](NC(=O)c1cc(-c2cc(F)cc(F)c2)cc2ccn(Cc3cccc(C(F)(F)F)c3)c12)c1ccc(C(=O)O)cc1` [Example 130, (S)-4-(1-(5-(3,5-difluorophenyl)-1-(3-(trifluoromethyl)benzyl)-1H-indole-7-carboxamido)ethyl)benzoic acid] was below 100 nM; that for `O=C(O)c1ccc(C2(NC(=O)c3cc(-c4ccccc4)cc4ccn(Cc5cccc(C(F)(F)F)c5)c34)CC2)cc1` [Example 131, 4-(1-(5-phenyl-1-(3-(trifluoromethyl)benzyl)-1H-indole-7-carboxamido)cyclopropyl)benzoic acid] was 100 to 1000 nM; that for `O=C(O)c1ccc(C2(NC(=O)c3cc(-c4cc(F)cc(F)c4)cc4ccn(Cc5cccc(C(F)(F)F)c5)c34)CC2)cc1` [Example 132, 4-(1-(5-(3,5-difluorophenyl)-1-(3-(trifluoromethyl)benzyl)-1H-indole-7-carboxamido)cyclopropyl)benzoic acid] was 100 to 1000 nM.
The figure for `N#Cc1cccc(-c2cc(C(=O)NC3(c4ccc(C(=O)O)cc4)CC3)c3c(ccn3Cc3cccc(C(F)(F)F)c3)c2)c1` [Example 133, 4-(1-(5-(3-cyanophenyl)-1-(3-(trifluoromethyl)benzyl)-1H-indole-7-carboxamido)cyclopropyl)benzoic acid] is 100 to 1000 nM; for `O=C(O)c1ccc(CNC(=O)c2cc(-c3ccc(F)cc3)cc3cnn(Cc4cccc(C(F)(F)F)c4)c23)cc1` [Example 138, 4-((5-(4-fluorophenyl)-1-(3-(trifluoromethyl)benzyl)-1H-indazole-7-carboxamido)methyl)benzoic acid] it is below 100 nM.
The figure for `O=C(O)c1ccc(CNC(=O)c2cc(-c3cc(F)cc(F)c3)cc3cnn(Cc4cccc(C(F)(F)F)c4)c23)cc1` [Example 139, 4-((5-(3,5-difluorophenyl)-1-(3-(trifluoromethyl)benzyl)-1H-indazole-7-carboxamido)methyl)benzoic acid] is below 100 nM; for `O=C(O)c1ccc(C2(NC(=O)c3cc(-c4ccccc4)cc4cnn(Cc5cccc(C(F)(F)F)c5)c34)CC2)cc1` [Example 140, 4-(1-(5-phenyl-1-(3-(trifluoromethyl)benzyl)-1H-indazole-7-carboxamido)cyclopropyl)benzoic acid] it is 100 to 1000 nM.
In the case of `O=C(O)c1ccc(CNC(=O)c2cc(-c3ccc(F)cc3)cc3ccn(Cc4ccc5ccccc5n4)c23)cc1` [Example 142, 4-((5-(4-fluorophenyl)-1-(quinolin-2-ylmethyl)-1H-indole-7-carboxamido)methyl)benzoic acid], the IC50 is below 100 nM.
The figure for `C[C@H](NC(=O)c1cc(-c2ccccc2)cc2ccn(Cc3ccc4ccccc4n3)c12)c1ccc(C(=O)O)cc1` [Example 143, (S)-4-(1-(5-phenyl-1-(quinolin-2-ylmethyl)-1H-indole-7-carboxamido)ethyl)benzoic acid] is below 100 nM; for `C[C@H](NC(=O)c1cc(-c2ccc(F)cc2)cc2ccn(Cc3ccc4ccccc4n3)c12)c1ccc(C(=O)O)cc1` [Example 144, (S)-4-(1-(5-(4-fluorophenyl)-1-(quinolin-2-ylmethyl)-1H-indole-7-carboxamido)ethyl)benzoic acid] it is below 100 nM; for `O=C(O)c1ccc(CNC(=O)c2cc(-c3ccccc3)cc3ccn(Cc4cccc(-c5ccccc5)c4)c23)cc1` [Example 145, ((1-([1,1′-biphenyl]-3-ylmethyl)-5-phenyl-1H-indole-7-carboxamido)methyl)benzoic acid] it is below 100 nM.
The value for `COc1cccc(Cn2ccc3cc(-c4ccccc4)cc(C(=O)NCc4ccc(C(=O)O)cc4)c32)c1` [Example 146, 4-((1-(3-methoxybenzyl)-5-phenyl-1H-indole-7-carboxamido)methyl)benzoic acid] was below 100 nM.
The figure for `O=C(O)c1ccc(CNC(=O)c2cc(-c3ccc(F)cc3)cc3ccn(Cc4ccc(-c5ccccc5)cc4)c23)cc1` [Example 148, 4-((1-([1,1′-biphenyl]-4-ylmethyl)-5-(4-fluorophenyl)-1H-indole-7-carboxamido)methyl)benzoic acid] is below 100 nM; for `O=C(O)c1ccc(CNC(=O)c2ccc(Nc3ccccc3)c3ccn(Cc4ccc5ccccc5n4)c23)cc1` [Example 153, 4-((4-(phenylamino)-1-(quinolin-2-ylmethyl)-1H-indole-7-carboxamido)methyl)benzoic acid] it is below 100 nM.

Values taken from patent US20250179017A1 (GUANGDONG NEWOPP BIOPHARMACEUTICALS CO., LTD., priority 2022, published 2025).
